Reference: US10828315B2 (Madrigal Pharmaceuticals, Inc., priority 2013, dated 2020)
Read-outs that look alike come from different tables or passages of the source.

Experiments:
[1] = Mouse plasma stability protocol, up to 1 h (Examples 16-18); conditions: for % Remaining (1 h): % Remaining of parent after 1 h incubation in mouse plasma at 37° C. (10 μM); for Mouse (10 μM) % Remaining 1 h (37° C.)*: sum of both peaks; for Peak Area Ratio: SDC-TRAP-0063 incubated in mouse plasma
[2] = system: HER2; assay: HER2 degradation in BT-474 cells (Example 3, Methods 1 and 2); type: cell-based, human
Source text: This example illustrates how a HER2 degradation assay may be used as a test to determine and select Hsp90-targeting moieties suitable for use in SDC-TRAPs of the invention, and further illustrates the ability of SDC-TRAPs to target cells preferentially expressing Hsp90. Such a test may further be used to determine the Hsp90 binding ability of SDC-TRAPs of the invention, as well as through competitive binding assays and cell-based Hsp90 client protein degradation assays known in the art.
After treatment, each cytoplasmic sample is prepared from 1×10^6 cells by incubation of cell lysis buffer (#9803, Cell Signaling Technology) on ice for 10 minutes. The resulting supernatant used as the cytosol fractions is dissolved with sample buffer for SDS-PAGE and run on a SDS-PAGE gel, blotted onto a nitrocellulose membrane by using semi-dry transfer. Non-specific binding to nitrocellulose is blocked with 5% skim milk in TBS with 0.5% Tween at room temperature for 1 hour, then probed with anti-HER2/ErB2 mAb (rabbit IgG, #2242, Cell Signaling) and anti-Tubulin (T9026, Sigma) as housekeeping control protein. HRP-conjugated goat anti-rabbit IgG (H+L) and HRP-conjugated horse anti-mouse IgG (H+L) are used as secondary Ab (#7074#7076, Cell Signaling) and LumiGLO reagent, 20× Peroxide (#7003, Cell Signaling) is used for visualization. The Hsp90 client protein HER2 is degraded when cells are treated with Hsp90-targeting moieties or SDC-TRAPs of the invention.
BT-474 cells are plated in the interior 60 wells of a 96 well black clear bottom plate (20,000 cells/well) in DMEM medium, with DMEM media in the surrounding 36 wells, and incubated at 37° C. with 5% CO2 overnight. On the second day, concentration response curve source plates are produced (10 point, 3-fold dilution of compounds in DMSO) followed by a 1:30 dilution in an intermediate dilution plate containing DMEM. Compound is transferred from the intermediate plate to the cell plate at a dilution of 1:10. The cells are then incubated at 37° C. with 5% CO2 for 24 hours.
Cells are then fixed in 4% phosphate-buffered paraformaldehyde for 30 minutes at room temperature and then permeabilized by washing five times with 0.1% Triton X-100 in PBS for 5 minutes at room temperature on a shaker. […] Cells are washed five times with 0.1% Tween-20 in PBS for 5 minutes at room temperature on a shaker and incubated with fluorescently-labeled secondary antibody (LI-COR, #926-32211) diluted 1:1000 in blocking buffer, and DRAQ5 nuclear stain (Biostatus Limited, # DRAQ5) diluted 1:10,000, at room temperature on a shaker for 1 hour. Cells are washed 5 times with 0.1% Tween-20 in PBS for 5 minutes at room temperature on a shaker and imaged on a LI-COR Odyssey imaging station. The raw data is normalized to DRAQ5 and the HER2 EC50 is calculated using XLfit™.

[3] = system: HER2; assay: HER2 degradation assay with BT-474 cell line (Example 12, FACS); type: cell-based, human
[4] = Stability in cell culture media (Example 18); conditions: for Media (5 μM) % Remaining 1 h (37° C.)*: sum of both peaks
Procedure: 98 μL of DMEM+10% FBS, +1% P/S, +1.5 g/L sodium bicarbonate cell culture media was mixed with 2 μL of DMSO and aliquotted into 96-well plates at 250 μL per 0, 1, 2, and 18 hour time point.
3×50 μL media samples in 96 were held in 96-well plates at −80° C. until the last time point was extracted. 200 μL of methanol containing IS was added and mixed by vortex at 1500 rpm for 1.5 minutes at room temperature. The samples were centrifuged at 4400 rpm for 10 minutes at 8° C.

[5] = system: human urinary bladder cancer cell line SW780; assay: Cytotoxicity assay (CellTiter-Glo, 72 h), SW780; type: cell-based; conditions: SW780, 72 hours, read-out: Cytotoxicity (IC50, nM) SW-780
Procedure: (§1) Cytotoxicity of SDC-TRAP molecules was determined in three cancer cell lines. […] 80 μL of CellTiter-Glo was added to each well, followed by room temperature incubation in the dark for 15 minutes. Cell was determined by luminescence. IC50 was calculated using XLfit™ software.

[6] = Metabolite profiling and identification; type: in vitro ADME; set-up: key: —: Not detected; conditions: for Metabolite Glucuronidation: M+1 569.3; for Metabolite Hydroxylation + glucuronidatiom: M+1 585.3
Source text: Metabolite Profiling and Identification: Metabolite profiling/identification for SDC-TRAP-0063 (M+1:880.3)

[7] = Artificial membrane permeability assay (PAMPA)
Procedure: Pre-coated PAMPA plates were warmed to room temperature for at least 30 minutes prior to adding assay components.
Stock solutions were prepared with the SDC-TRAP molecules to be tested. In order to make a working solution, either 50 μL of 100 μM Stock in DMSO+950 μL of PBS or 50 μL of 200 μM stock was added to 96 deep well plate, resulting in a 5 μM final concentration or a 10 μM final concentration, respectively. 3000 μL of the working solution containing each compound to be tested was added to the appropriate well of a donor PAMPA plate. 200 μL of PBS was added into the corresponding wells of an acceptor PAMPA plates.
The acceptor plate was lowered onto the donor plate and allowed to incubate for five hours. After five hours, a 50 μL aliquot was removed from each well of each plate and added into a new 96 deep-well plate.
100 μL of methanol containing an internal standard was added to each aliquot and analyzed by LC/MS.
In order to calculate the permeability for each SDC-TRAP molecule and the control molecules, the following formula was used:

[8] = system: human urinary bladder cancer cell line RT-112; assay: Cytotoxicity assay (CellTiter-Glo, 72 h), RT-112; type: cell-based; conditions: RT-112, 72 hours, read-out: Cytotoxicity (IC50, nM) RT-112
Procedure: as §1

[9] = system: human breast cancer cell line BT-474; assay: Cytotoxicity assay (CellTiter-Glo, 72 h), BT-474; type: cell-based; conditions: BT-474, 72 hours, read-out: Cytotoxicity (IC50, nM) BT-474
Procedure: as §1

[10] = Tissue Distribution Data for SDC-TRAP-0045, Time (h) 0.083
[11] = Tissue Distribution Data for SDC-TRAP-0045, Time (h) 6
[12] = Tissue Distribution Data for SDC-TRAP-0045, Time (h) 12
[13] = Tissue Distribution Data for SDC-TRAP-0045, Time (h) 24
[14] = Tissue Distribution Data for SDC-TRAP-0045, Time (h) 48

SMILES: CCc1c2c(nc3ccc(O)cc13)-c1cc3c(c(=O)n1C2)COC(=O)C3(CC)OC(=O)CCC(=O)N1CCC(Cc2ccc(-n3c(O)nnc3-c3cc(C(C)C)c(O)cc3O)cc2)CC1 (stereo not shown) [SDC-TRAP-0042, 4,11-diethyl-9-hydroxy-3,14-dioxo-3,4,12,14-tetrahydro-1H-pyrano[3′,4′:6,7]indolizino[1,2-b]quinolin-4-yl 4-(4-(4-(3-(2,4-dihydroxy-5-isopropylphenyl)-5-hydroxy-4H-1,2,4-triazol-4-yl)benzyl)piperidin-1-yl)-4-oxobutanoate]
- % Remaining (1 h) [1]: 73.9%
- % Remaining (1 h, 37° C.) ([1]; mouse plasma, 1 h): 74%
- IC50 [2]: 1060 nM
- IC50 [3]: 1060 nM

SMILES: CCc1c2c(nc3ccc(OC(=O)N(C)CCCCN4CCN(Cc5ccc(-n6c(O)nnc6-c6cc(C(C)C)c(O)cc6O)cc5)CC4)cc13)-c1cc3c(c(=O)n1C2)COC(=O)C3(O)CC (stereo not shown) [SDC-TRAP-0044, 4,11-diethyl-4-hydroxy-3,14-dioxo-3,4,12,14-tetrahydro-1H-pyrano[3′,4′:6,7]indolizino[1,2-b]quinolin-9-yl (4-(4-(4-(3-(2,4-dihydroxy-5-isopropylphenyl)-5-hydroxy-4H-1,2,4-triazol-4-yl)benzyl)piperazin-1-yl)butyl)(methyl)carbamate]
- Media (5 μM) % Remaining 19 h (37° C.) [4]: 41%
- Media (5 μM) % Remaining 1 h (37° C.)* [4]: 50%
- % Remaining (1 h) [1]: 60.6%
- % Remaining (1 h, 37° C.) ([1]; mouse plasma, 1 h): 61%
- Mouse (10 μM) % Remaining 1 h (37° C.)* ([1]; mouse plasma): 61%
- IC50 [2]: 602 nM
- IC50 [3]: 602 nM

SMILES: CCc1c2c(nc3ccc(OC(=O)N4CCN(c5ccc(-n6c(O)nnc6-c6cc(C(C)C)c(O)cc6O)cc5)CC4)cc13)-c1cc3c(c(=O)n1C2)COC(=O)C3(O)CC (stereo not shown) [SDC-TRAP-0045, 4,11-diethyl-4-hydroxy-3,14-dioxo-3,4,12,14-tetrahydro-1H-pyrano[3′,4′:6,7]indolizino[1,2-b]quinolin-9-yl 4-(4-(3-(2,4-dihydroxy-5-isopropylphenyl)-5-hydroxy-4H-1,2,4-triazol-4-yl)phenyl)piperazine-1-carboxylate]
- Media (5 μM) % Remaining 19 h (37° C.) [4]: 50%
- Media (5 μM) % Remaining 1 h (37° C.)§ ([4]; data from single parent peak): 72%
- Media (5 μM) % Remaining 1 h (37° C.)* [4]: 77%
- Plasma Conc. [10]: 689000 nM
- Tumor Conc. [10]: 4.30 nmol/g of tissue
- Tumor/Plasma Ratio [10]: 0.00624
- Plasma Conc. [11]: 1880 nM
- Tumor Conc. [11]: 2.55 nmol/g of tissue
- Tumor/Plasma Ratio [11]: 1.35
- Plasma Conc. [12]: 141 nM
- Tumor Conc. [12]: 1.13 nmol/g of tissue
- Tumor/Plasma Ratio [12]: 8.02
- Plasma Conc. [13]: 11.3 nM
- Tumor Conc. [13]: BQL
- Plasma Conc. [14]: BQL
- Tumor Conc. [14]: BQL
- % Remaining (1 h) [1]: 45.0%
- % Remaining (1 h, 37° C.) ([1]; mouse plasma, 1 h): 45%
- Mouse (10 μM) % Remaining 1 h (37° C.)§ ([1]; mouse plasma, data from single parent peak): 34%
- Mouse (10 μM) % Remaining 1 h (37° C.)* ([1]; mouse plasma): 45%
- IC50 [2]: 464 nM
- IC50 [3]: 464 nM

SMILES: CCc1c2c(nc3ccc(O)cc13)-c1cc3c(c(=O)n1C2)COC(=O)C3(CC)OC(=O)N1CCN(Cc2ccc(-n3c(O)nnc3-c3cc(C(C)C)c(O)cc3O)cc2)CC1 (stereo not shown) [SDC-TRAP-0047, 4,11-diethyl-9-hydroxy-3,14-dioxo-3,4,12,14-tetrahydro-1H-pyrano[3′,4′:6,7]indolizino[1,2-b]quinolin-4-yl 4-(4-(3-(2,4-dihydroxy-5-isopropylphenyl)-5-hydroxy-4H-1,2,4-triazol-4-yl)benzyl)piperazine-1-carboxylate]
- % Remaining (1 h) [1]: 88.9%
- % Remaining (1 h, 37° C.) ([1]; mouse plasma, 1 h): 89%
- IC50 [2]: 875 nM
- IC50 [3]: 875 nM

SMILES: CCc1c2c(nc3ccc(O)cc13)-c1cc3c(c(=O)n1C2)COC(=O)[C@]3(O)CC [SN-38, reference compound]
- Media (5 μM) % Remaining 19 h (37° C.) [4]: 52%
- Media (5 μM) % Remaining 1 h (37° C.)* [4]: 82%
- IC50 [5]: 38 nM
- Metabolite Glucuronidation ([6]; Hepatocytes Dog): √
- Metabolite Hydroxylation + glucuronidatiom ([6]; Hepatocytes Dog): —
- Metabolite Glucuronidation ([6]; Hepatocytes Human): √
- Metabolite Hydroxylation + glucuronidatiom ([6]; Hepatocytes Human): √
- Metabolite Glucuronidation ([6]; Hepatocytes Monkey): √
- Metabolite Hydroxylation + glucuronidatiom ([6]; Hepatocytes Monkey): √
- Metabolite Glucuronidation ([6]; Hepatocytes Mouse): √
- Metabolite Hydroxylation + glucuronidatiom ([6]; Hepatocytes Mouse): —
- Metabolite Glucuronidation ([6]; Hepatocytes Rat): √
- Metabolite Hydroxylation + glucuronidatiom ([6]; Hepatocytes Rat): —
- Plasma Conc. (mouse, in vivo): BQL
- Tumor Conc. (mouse, in vivo): BQL
- Mass Retention ([7]; incubation 5 h, first table): 38.2%
- Mass Retention ([7]; same protocol, second table): 46.6%
- % Remaining (1 h) [1]: 63.5%
- Peak Area Ratio ([1]; 0 h): 0.0616
- Peak Area Ratio ([1]; 0.5 h): 4.13
- Peak Area Ratio ([1]; 1 h): 4.46
- Peak Area Ratio ([1]; […]): 1.37
- Mouse (10 μM) % Remaining 1 h (37° C.)* ([1]; mouse plasma): 64%
- IC50 [8]: < 10 nM
- IC50 [9]: > 10000 nM

SMILES: CCc1c2c(nc3ccc(O)cc13)-c1cc3c(c(=O)n1C2)COC(=O)C3(CC)OC(=O)N(C)CCOCCn1ccc2cc(-n3c(O)nnc3-c3cc(C(C)C)c(O)cc3O)ccc21 (stereo not shown) [SDC-TRAP-0037, 4,11-diethyl-9-hydroxy-3,14-dioxo-3,4,12,14-tetrahydro-1H-pyrano[3′,4′:6,7]indolizino[1,2-b]quinolin-4-yl (2-(2-(5-(3-(2,4-dihydroxy-5-isopropylphenyl)-5-hydroxy-4H-1,2,4-triazol-4-yl)-1H-indol-1-yl)ethoxy)ethyl)(methyl)carbamate]
- Media (5 μM) % Remaining 19 h (37° C.) [4]: 6%
- Media (5 μM) % Remaining 1 h (37° C.)* [4]: 67%
- % Remaining (1 h) [1]: 95.3%
- % Remaining (1 h, 37° C.) ([1]; mouse plasma, 1 h): 95%
- Mouse (10 μM) % Remaining 1 h (37° C.)* ([1]; mouse plasma): 95%
- IC50 [2]: 2110 nM
- IC50 [3]: 2110 nM

SMILES: CCc1c2c(nc3ccc(O)cc13)-c1cc3c(c(=O)n1C2)COC(=O)C3(CC)OC(=O)CCC(=O)N1CCN(Cc2ccc(-n3c(O)nnc3-c3cc(C(C)C)c(O)cc3O)cc2)CC1 (stereo not shown) [SDC-TRAP-0043, 4,11-diethyl-9-hydroxy-3,14-dioxo-3,4,12,14-tetrahydro-1H-pyrano[3′,4′:6,7]indolizino[1,2-b]quinolin-4-yl 4-(4-(4-(3-(2,4-dihydroxy-5-isopropylphenyl)-5-hydroxy-4H-1,2,4-triazol-4-yl)benzyl)piperazin-1-yl)-4-oxobutanoate]
- IC50 [2]: 2140 nM
- IC50 [3]: 2140 nM

SMILES: CCc1c2c(nc3ccc(OC(=O)N4CCC(Cc5ccc(-n6c(O)nnc6-c6cc(C(C)C)c(O)cc6O)cc5)CC4)cc13)-c1cc3c(c(=O)n1C2)COC(=O)C3(O)CC (stereo not shown) [SDC-TRAP-0031, 4,11-diethyl-4-hydroxy-3,14-dioxo-3,4,12,14-tetrahydro-1H-pyrano[3′,4′:6,7]indolizino[1,2-b]quinolin-9-yl 4-(4-(3-(2,4-dihydroxy-5-isopropylphenyl)-5-hydroxy-4H-1,2,4-triazol-4-yl)benzyl)piperidine-1-carboxylate]
- IC50 [2]: 2920 nM
- IC50 [3]: 1270 nM
